According to ChEMBL document CHEMBL4513161, “CO-ADD screening of MMV (CH) - Pandemic Response Box” (2021):
Values after ≈ are worked out from the molar mass of the structure shown. Counter-ions that a name gives are not always drawn.

Key:
Candida albicans = experiment: microbe, parasite or virus in culture; conditions: ATCC 90028, ASSAY_TEST Inhibition of Fungal Growth, detection method Absorption (OD530), plate type 384well, NBS, CORNING #3640
Klebsiella pneumoniae = experiment: microbe, parasite or virus in culture; conditions: ATCC 700603, 18 h, ASSAY_TEST Inhibition of Bacterial Growth, detection method Absorption (OD600), MEDIA CAMHB, plate type 384well, NBS, CORNING #3640
Staphylococcus aureus = experiment: microbe, parasite or virus in culture; conditions: ATCC 43300, 18 h, ASSAY_TEST Inhibition of Bacterial Growth, detection method Absorption (OD600), MEDIA CAMHB, plate type 384well, NBS, CORNING #3640
Pseudomonas aeruginosa [1] = experiment: Antibacterial activity against Pseudomonas aeruginosa PAO397 [PAO1 d(mexAB-oprM) d(mexCD-oprJ) d(mexEF-oprN) d(mexJKL) d(mexXY) d(opmH)] (CO-ADD:GN_211); MIC in CAMBH media using NBS plates, by OD(600); format: functional; conditions: ASSAY_TEST Inhibition of Bacterial Growth, detection method Absorption (OD600), MEDIA CAMHB, plate type 384well, CORNING #3640, time 18 hr
Acinetobacter baumannii = experiment: microbe, parasite or virus in culture; conditions: ATCC 19606, 18 h, ASSAY_TEST Inhibition of Bacterial Growth, detection method Absorption (OD600), MEDIA CAMHB, plate type 384well, NBS, CORNING #3640
Escherichia coli = experiment: microbe, parasite or virus in culture; conditions: ATCC 25922, 18 h, ASSAY_TEST Inhibition of Bacterial Growth, detection method Absorption (OD600), MEDIA CAMHB, plate type 384well, NBS, CORNING #3640
Pseudomonas aeruginosa [2] = experiment: microbe, parasite or virus in culture; conditions: ATCC 27853, 18 h, ASSAY_TEST Inhibition of Bacterial Growth, detection method Absorption (OD600), MEDIA CAMHB, plate type 384well, NBS, CORNING #3640
HEK293 = experiment: cells; format: functional, Homo sapiens, ATCC CRL1573; conditions: Homo sapiens, ATCC CRL1573, HEK293; ASSAY_TEST Inhibition of Cell Viability; detection method Resazurin; Fluorescence (ex560/em590); MEDIA DMEM with 10% FBS; plate type 384well; TC; CORNING #3712; time 18 hr; read-out: CC50

Structure (SMILES)	MIC (Candida albicans) [µM]	MIC (Klebsiella pneumoniae) [µM]	MIC (Staphylococcus aureus) [µM]	MIC (Pseudomonas aeruginosa [1]) [µM]	MIC (Acinetobacter baumannii) [µM]	MIC (Cryptococcus neoformans) [µM]	MIC (Escherichia coli) [µM]	MIC (Pseudomonas aeruginosa [2]) [µM]	CC50 (HEK293) [µM]
Oc1ccc2[nH]c(-c3ccccc3)nc2c1	> 20	> 20	> 20	> 20	> 20	> 20	> 20	> 20	> 20
Cc1ccc(NC(=O)c2cc(Cl)ccc2O)cc1	> 20	> 20	> 20	> 20	> 20	> 20	> 20	> 20	3.91
Nc1nc(=O)c(Br)c(-c2ccccc2)[nH]1 [BROPIRIMINE]	> 20	> 20	> 20	> 20	> 20	> 20	> 20	> 20	> 20
CC(C)Oc1cccc(NC(=O)c2ccccc2C(F)(F)F)c1 [FLUTOLANIL]	> 20	> 20	> 20	> 20	> 20	> 20	> 20	> 20	> 20
Nc1nc(-c2ccccc2)nc2[nH]nc(Nc3ccc(C(F)(F)F)cc3)c12	> 20	> 20	> 20	> 20	> 20	> 20	> 20	> 20	> 20
O=C(O)/C=C/C=C/c1cccc(Oc2cc(Cl)cc(Cl)c2)c1	> 20	> 20	> 20	> 20	> 20	> 20	> 20	> 20	> 20
C[C@H]1CC[C@]2(NC1)O[C@H]1C[C@H]3[C@@H]4CC[C@H]5C[C@@H](O)CC[C@]5(C)[C@H]4CC[C@]3(C)[C@H]1[C@@H]2C	20 (≈ 8.31 µg/mL)	> 20	> 20	> 20	> 20	> 20	> 20	> 20	> 20
Oc1cccc(C(Nc2nccs2)c2ccc3cccnc3c2O)c1 (stereo unspecified)	> 20	> 20	> 20	> 20	> 20	> 20	> 20	> 20	6.67
CCNC(=O)Nc1cc2c(-c3ccnc(C)c3)ccc(CNC(=O)OC)c2cn1	> 20	> 20	0.312 (≈ 0.123 µg/mL)	2.5 (≈ 0.984 µg/mL)	> 20	> 20	> 20	> 20	> 20
Fc1ccc2c(/C=C/c3cccnc3)c[nH]c2c1	> 20	> 20	> 20	> 20	> 20	> 20	> 20	> 20	> 20
C[C@H](c1cccc2ccccc12)N(C)Cc1ccccc1	> 20	> 20	> 20	> 20	> 20	> 20	> 20	> 20	> 20
CN(C)CCCOc1ccc(-c2ccc3ncc4c(c3c2)n(C2CCOCC2)c(=O)n4C)cn1	> 20	> 20	> 20	> 20	> 20	> 20	> 20	> 20	> 20
O=C(CC1Sc2ncnn2C1=O)Nc1ccc(Br)cc1 (stereo unspecified)	20 (≈ 7.06 µg/mL)	> 20	> 20	> 20	> 20	10 (≈ 3.53 µg/mL)	> 20	> 20	> 20
CN(C/C=C/C#CC(C)(C)C)Cc1cccc2ccccc12 [TERBINAFINE HYDROCHLORIDE]	> 20	> 20	> 20	> 20	> 20	20	> 20	> 20	> 20
CC(C)c1ccc(COc2cccc(-c3cc([S+](C)[O-])c(C#N)c(=O)[nH]3)c2)cc1 (stereo unspecified)	> 20	> 20	> 20	> 20	> 20	> 20	> 20	> 20	> 20

Now from value to compound, other results behind:

MIC (Candida albicans) [µM]	MIC (Klebsiella pneumoniae) [µM]	MIC (Staphylococcus aureus) [µM]	MIC (Pseudomonas aeruginosa [1]) [µM]	MIC (Acinetobacter baumannii) [µM]	MIC (Cryptococcus neoformans) [µM]	MIC (Escherichia coli) [µM]	MIC (Pseudomonas aeruginosa [2]) [µM]	Structure (SMILES)	CC50 (HEK293) [µM]
> 20	> 20	> 20	> 20	> 20	20 (≈ 2.78 µg/mL)	> 20	> 20	Cc1cc(C)n(O)c(=O)c1 [METIPIROX]	> 20
> 20	> 20	> 20	> 20	> 20	> 20	> 20	> 20	C(=C\c1nc2ccccc2[nH]1)/c1ccc2c(c1)OCO2	> 20
> 20	10 (≈ 2.9 µg/mL)	5 (≈ 1.45 µg/mL)	5 (≈ 1.45 µg/mL)	> 20	> 20	2.5 (≈ 0.726 µg/mL)	20 (≈ 5.81 µg/mL)	COc1cc(Cc2cc(N)nc(N)n2)cc(OC)c1OC	> 20
> 20	> 20	> 20	> 20	> 20	> 20	> 20	> 20	Cc1[nH]c2ccccc2c1CC(=O)N[C@@H](Cc1ccccc1)C(=O)N(C)c1ccccc1	> 20
> 20	> 20	> 20	> 20	> 20	> 20	> 20	> 20	COc1ccc(CNC(=O)C(NS(=O)(=O)c2ccc3nc(C)sc3c2)C(C)C)cc1 (stereo unspecified)	> 20
> 20	> 20	> 20	> 20	> 20	> 20	> 20	> 20	CCCNc1ccc(S(=O)(=O)Nc2cc(C)on2)cc1	> 20
> 20	20 (≈ 4.97 µg/mL)	1.25 (≈ 0.31 µg/mL)	> 20	> 20	> 20	1.25 (≈ 0.31 µg/mL)	2.5 (≈ 0.621 µg/mL)	CCc1cc(O)c(Oc2cccnc2N)cc1F	> 20
10 (≈ 3.78 µg/mL)	> 20	20 (≈ 7.55 µg/mL)	> 20	> 20	20 (≈ 7.55 µg/mL)	> 20	> 20	O=C(/C(=C/c1ccc(Cl)cc1Cl)n1ccnc1)c1ccc(Cl)cc1	5.19
> 20	> 20	> 20	> 20	> 20	> 20	> 20	> 20	COC(=O)Nc1nc2cc([S+]([O-])c3ccccc3)ccc2[nH]1 (stereo unspecified) [OXFENDAZOLE]	> 20
> 20	> 20	1.25 (≈ 0.487 µg/mL)	> 20	> 20	> 20	> 20	> 20	Cc1c(CN(C)C(=O)/C=C/c2cnc3c(c2)C(C)(C)C(=O)N3)oc2ccccc12	> 20
0.312 (≈ 0.111 µg/mL)	> 20	> 20	> 20	> 20	0.625 (≈ 0.221 µg/mL)	> 20	> 20	N#C/C(=C1/SC[C@H](c2ccc(Cl)cc2Cl)S1)n1ccnc1	> 20
> 20	> 20	1.25 (≈ 0.545 µg/mL)	> 20	> 20	> 20	> 20	> 20	Cc1onc(-c2ccccc2Cl)c1C(=O)N[C@@H]1C(=O)N2[C@@H]1SC(C)(C)[C@@H]2C(=O)O [CLOXACILLIN]	> 20
> 20	> 20	> 20	> 20	> 20	> 20	> 20	> 20	CN(C)CC(=O)Nc1ccc2[nH]c(=O)c3ccccc3c2c1 [PJ34]	> 20
> 20	> 20	> 20	> 20	> 20	> 20	> 20	> 20	COc1ccc(COc2cc3oc(=O)c4cc(C(C)O)ccc4c3cc2OC)cc1 (stereo unspecified) [PALOMID-529]	> 20
